# “And” between values parts separate entries of the source, which are not always exact repeats. Equal values may be shown once.
# Test system: embryonic stages of S. digitata
# Assay: Intra cellular expression of CED-4 protein, flow cytometry
# Assay type: cell-based, Setaria digitata
# Settings: 24 hr
# Description: Adult female filarial worms Setaria digitata were collected from the peritoneum of cattle, slaughtered at a nearby abattoir in sterile Hanks Balanced Salt Solution (HBSS) medium (Sigma H 2387-1L) and transported to the laboratory in a sterile container. The medium containing 1% glucose (Sigma G 7528), Penicillin 100 units/ml, Streptomycin 100 μg/ml (Sigma P 4333). And Amphotericin-B 0.25 μg/ml (Sigma A 2942) was buffered with NaHCO3 (Sigma S 5761). About 5 to 7 worms were taken in a petridish, washed three times in medium, dissected into small pieces in 10 ml of medium under sterile conditions and incubated at 37° C. for 30 minutes to allow the release of embryonic stages (eggs and microfilariae) into the medium. The embryonic stages were harvested into sterile 15 ml. centrifuge tubes and washed three times by centrifuging at 300 g for 10 minutes each with medium and the final pellet was suspended in 1 ml. of RPMI-1640 medium (Sigma R 8005) supplemented with 10% FBS (Sigma F 2442) The number of embryonic stages of S. digitata in the above preparation were counted using light microscope, and the suspension was taken in RPMI-1640 medium containing 10% FBS at 1×10^5 embryonic stages/ml. One ml. each was dispensed into individual wells of a 24 well tissue culture plate. One set of wells was taken as untreated control containing only medium with 10% FBS. […] Motility of the Mf was scored under an inverted microscope. After appropriate treatment and incubation, each set of the cultured embryonic stages of S. digitata were harvested from the 24 well tissue culture plate separately in 15 ml. sterile centrifuge tubes, washed with PBS twice and stained as per requirement following manufacturer's instructions as described below. This was followed by two times washing with PBS and final suspension of the stained embryonic stages was taken in 0.5 ml of sheath fluid (BD Biosciences 342003) before their acquisition in the flow cytometer (BD FACS Calibur, Becten and Dickinson, USA). Analysis was performed on 10,000-acquired events depicted as Dot Plots and Histogram Plots using Cellquest Pro soft ware. All plots were representative of at least 3 experiments. The distinctly clustered populations obtained consistently in the Dot plots for the intra uterine embryonic stages of S. digitata (FIG. 1 a) were gated for Mfs (R-1) and eggs (R-2 and R-3) and analyzed for different assays for apoptosis as described below. After in vitro culture for 24 hours with apoptosis inducing reagents the embryonic stages were harvested in 15 ml. sterile centrifuge tubes and fixed for 60 minutes at 0° C. in 1% paraformaldehyde (Sigma P 6148) in PBS. The suspension was washed first with PBS and then with 1× permeabilisation buffer (eBioscience 00-8333-56) and finally resuspended in 100 μl of 1× permeabilisation buffer at 1×10^5 embryonic stages per ml. The intracellular expression of CED-4 was scored by incubation of the fixed and permeabilised embryonic stages with primary goat antibodies—anti CED-4 (Santacruz sc-9193) followed by probing with PE conjugated secondary anti goat IgG-PE (Santacruz sc-3747) antibodies. Incubation of both primary and secondary antibodies (both 1/100 diluted) was done successively in 1× permeabilisation buffer (e Bioscience 00-8333-56) for 1 hr and 45 minutes respectively. The suspension of stained embryonic stages was then washed with PBS twice and finally reading was taken by flow cytometry or confocal microscopy.
Compound,"GMI (Geometric Mean Intensity) of Fluorescence, CED-4 Expression (Eggs, 1 μM)","GMI (Geometric Mean Intensity) of Fluorescence, CED-4 Expression (Microfilariae, 1 μM)","GMI (Geometric Mean Intensity) of Fluorescence, CED-4 Expression (Eggs, 10 μM)","GMI (Geometric Mean Intensity) of Fluorescence, CED-4 Expression (Microfilariae, 10 μM)"
CN[C@@H]1C[C@H]2O[C@@](C)([C@@H]1OC)n1c3ccccc3c3c4c(c5c6ccccc6n2c5c31)C(=O)NC4 [Staurosporine],95.67 and 97.28 and 96.32,9.01 and 9.92 and 8.25,–,–
CC1=CC(=O)c2c(O)cccc2C1=O [Plumbagin],–,–,209.76 and 213.57 and 210.32,35.97 and 38.27 and 33.39
OO [H2O2],–,–,99.36 and 100.32 and 95.29,15.72 and 17.33 and 16.26

# Reference: patent US20110124523A1, “High Throughput Method for Detecting Apoptosis of Embryonic Stages of Metazoan Helminthic Parasites” (INSTITUTE OF LIFE SCIENCES, priority 2009, published 2011)
